Measured values published in patent US5997843A, “Radiometal complexes that localise in hypoxic tissue” (priority 1993, dated 1999).
“Also recorded” adds a separate entry of the source. Read-outs that look alike come from different tables or passages of the source.

Key:
[1] = system: isolated (Langendorff) rat hearts; experiment: Isolated perfused heart (Langendorff), hypoxic vs oxic uptake/retention; conditions: for Hypoxic/Oxic Ratio (H/O): ^99m Tc complex (or ^123 I-IAZA), 20 min infusion, 15 min washout; for Normalised Hypoxic Retention: relative to ^3 H-misonidazole activity; for normalised hypoxic retention, times greater than ^3 H misonidazole: isolated buffer perfused rat heart model
Description: A 15-minute cold buffer washout period follows. y activity in the heart is monitored using a collimated NaI probe detector positioned over the heart.
Activity in hearts, relative to perfusate activity, is calculated for each nuclide and data evaluated for each compound for activity in hypoxic and oxic hearts (hypoxic:oxic ratio) and also relative to the 3 H-misonidazole activity (normalised retention) using Formula 1. [formula] Results

xanthine oxidase [2] = experiment: Xanthine oxidase (XOD) with hypoxanthine in PBS reduction test; assay type: biochemical; conditions: ^99m Tc complex, HPLC
Description: b) Xanthine Oxidase (XOD) with Hypoxanthine in Phosphate Buffered Saline (PBS)
Xanthine oxidase (16 mg) was weighed into a P6 vial. the vial was capped, oversealed and purged with nitrogen gas. Nitrogen purged phosphate buffered saline (1 ml) was added to the vial containing the xanthine oxidase.
Hypoxanthine (4.1 mg) was weighed into a P6 vial. The vial was capped, oversealed and purged with nitrogen gas. To the hypoxanthine was added (1 ml) of the xanthine oxidase in PBS.
1 ml of the ligand solution or 1 ml of the ^99m Tc-complex preparation was then added to the reducing mixture, shaken, and aliquots were taken at 20 minute time intervals.

Biodistribution in rats = assay type: in vivo, male rats; conditions: i.v.
Description: Biodistribution in Rats--Methods
The quantitative biodistribution was studied in male rats at 2 minutes, 1 hour and 4 hours post-injection
Rats under light anaesthesia were injected intravenously with 0.1 ml of test agent. Three rats were sacrificed (anaesthesia followed by exsanguination) at 2, 60 and 240 minutes, post-injection. The percentage of the injected dose in the excreta and organs and tissues was determined by dissection and assay for radioactivity in an automatic gamma counter.

xanthine oxidase [3] = conditions: ^99 Tc complex; cited from earlier work
[4] = rat, cited from earlier work
[5] = 2 min post-injection, ^99m Tc complex
[6] = 240 min post-injection (third printed value)
[7] = second of two values, 60 or 240 min not assignable

SMILES | Hypoxic/Oxic Ratio (H/O) [1] | Normalised Hypoxic Retention [1] | Xanthine oxidase reduction test result (xanthine oxidase [2]) | Bladder/Urine (Biodistribution in rats; 2 min post-injection) | Blood (Biodistribution in rats; 2 min post-injection) | Gut (Biodistribution in rats; 2 min post-injection) | Kidney (Biodistribution in rats; 2 min post-injection) | Liver (Biodistribution in rats; 2 min post-injection) | Muscle (Biodistribution in rats; [5]) | Gut (Biodistribution in rats; 60 min post-injection) | Muscle (Biodistribution in rats; 60 min post-injection) | Muscle (Biodistribution in rats; [6]) | Gut (Biodistribution in rats; 240 min post-injection) | Blood (Biodistribution in rats; [7]) | Kidney (Biodistribution in rats; [7]) | Liver (Biodistribution in rats; [7]) | hypoxia selectivity / hypoxic/oxic ratio / hypoxic retention (in words) [1] | normalised hypoxic retention, times greater than ^3 H misonidazole [1] | also measured
CC(=NO)C(C)(C)NCCCNC(C)(C)C(Cn1ccnc1[N+](=O)[O-])=NO [Compound V, 3,3,9,9-Tetramethyl-1-(2-nitro-1H-imidazo-1-yl)-4,8-diazaundecane-2,10-dione dioxime, reference compound] | 10 | 8.4 | positive | 0.3 percent injected dose | 7.2 percent injected dose | 11.1 percent injected dose | 4.1 percent injected dose | 25.1 percent injected dose | 29.6 percent injected dose | 45.9 percent injected dose | 4.2 percent injected dose | 2.4 percent injected dose | 59.3 percent injected dose | 4.2 percent injected dose | 3.2 percent injected dose | 21.5 percent injected dose |  |  | 
CC(=NO)C(C)(C)NCCCNC(C)(C)C(C)=NO [Compound X, reference compound] | 5.1 | 0.50 | positive | 0.1 percent injected dose | 5.0 percent injected dose | 11.7 percent injected dose | 1.8 percent injected dose | 27.9 percent injected dose | 34.9 percent injected dose | 51.5 percent injected dose | 7.9 percent injected dose | 2.6 percent injected dose | 53.4 percent injected dose | 6.8 percent injected dose | 2.1 percent injected dose | 13.1 percent injected dose |  |  | reduction by xanthine oxidase (xanthine oxidase [3]): not reduced; brain uptake ([4]; in vivo, 0.5 min): 1.3 % injected dose; Xanthine oxidase reduction test result (xanthine oxidase [2]; listed as PnAO): reduced by xanthine oxidase
CC(=NO)C(C)(C)NCCCCNC(C)(C)C(Cn1ccnc1[N+](=O)[O-])=NO [Compound II] | 28 | 5.1 | positive | 1.0 percent injected dose | 8.4 percent injected dose | 13.4 percent injected dose | 13.1 percent injected dose | 15.5 percent injected dose | 26.1 percent injected dose | 40.0 percent injected dose | 6.6 percent injected dose | 3.1 percent injected dose | 49.9 percent injected dose | 1.3 percent injected dose | 1.4 percent injected dose | 11.4 percent injected dose | significantly greater than seen for other ^99m Tc test agents and ^123 I-IAZA; also recorded: greater than that for ^99m Tc-PnAO; also recorded: at least equivalent to ^123 I-IAZA | at least 2 times | 
CC(=NO)C(C)(C)NCCCCNC(C)(C)C(C)=NO [Compound I, 4,9-diaza-3,3,10,10-tetramethyldodecan-2,11',-dione dioxime] | 54 | 2.2 | positive | 0.6 percent injected dose | 9.7 percent injected dose | 11.2 percent injected dose | 7.5 percent injected dose | 10.6 percent injected dose | 35.2 percent injected dose | 22.3 percent injected dose | 12.5 percent injected dose | 3.5 percent injected dose | 24.4 percent injected dose | 2.4 percent injected dose | 5.6 percent injected dose | 9.1 percent injected dose | significantly greater than seen for other ^99m Tc test agents and ^123 I-IAZA; also recorded: greater than that for ^99m Tc-PnAO; also recorded: at least equivalent to ^123 I-IAZA; also recorded: significantly greater hypoxic cell selectivity than the corresponding nitroimidazole conjugate | at least 2 times | brain uptake ([4]; 30 sec pi, ^99m Tc complex): 0.12 % injected dose
CC(=NO)C(C)(C)NCCCCCNC(C)(C)C(Cn1ccnc1[N+](=O)[O-])=NO [Compound IV, 3,3,11,11-tetramethyl-1-(2-nitro-1H-imidazo-1-yl)-4,10-diazatridecan-2,12-dione dioxime] | 2.4 | 0.49 | positive | 0.4 percent injected dose | 10.6 percent injected dose | 13.7 percent injected dose | 12.1 percent injected dose | 15.6 percent injected dose | 24.3 percent injected dose | 50.9 percent injected dose | 8.2 percent injected dose | 2.0 percent injected dose | 60.0 percent injected dose | 1.0 percent injected dose | 2.7 percent injected dose | 2.5 percent injected dose | very little hypoxia selectivity |  | 
